Test results taken from US9994590B2, “Substituted [1,2,4]triazolo[1,5-a]pyrazines as phosphodiesterase inhibitors” (Sunovion Pharamaceuticals Inc., priority 2012, dated 2018).

Molecular target: recombinant human PDE-10 enzyme (human PDE-10A) (Homo sapiens (Human), UniProt Q9Y233)
Test: human PDE-10 inhibition assay (Molecular Devices IMAP PDE Fluorescence Polarization, enzyme assay IC50)
Assay type: biochemical
Settings: Fluorescein-labeled cAMP/cGMP substrate, 40-minute incubation at 37° C.
Protocol: In one embodiment, the compounds provided herein were assayed for their ability to inhibit human PDE-10A. In one embodiment, the activities of the compounds were determined using the Molecular Devices IMAP PDE Fluorescence Polarization assay using recombinant human PDE-10 enzyme expressed in a baculoviral system. Briefly, 10 μL of a compound (0.2 nM-20 μM) was added to either a 96-well half area black plate or a 384-well black plate along with 10 μL of Fluorescein-labeled cAMP/cGMP substrate as per manufacturer's instructions and 10 μL of PDE enzyme (activity 0.1 U). Following a 40-minute incubation at 37° C., 60 μL of IMAP binding reagent was added. The plate was then read on a Perkin Elmer Victor (480-535 nm). The data was analyzed using Prism Software (GraphPad Inc, San Diego, Calif.).

Sequence of recombinant human PDE-10 enzyme (human PDE-10A) (Q9Y233 whole entry): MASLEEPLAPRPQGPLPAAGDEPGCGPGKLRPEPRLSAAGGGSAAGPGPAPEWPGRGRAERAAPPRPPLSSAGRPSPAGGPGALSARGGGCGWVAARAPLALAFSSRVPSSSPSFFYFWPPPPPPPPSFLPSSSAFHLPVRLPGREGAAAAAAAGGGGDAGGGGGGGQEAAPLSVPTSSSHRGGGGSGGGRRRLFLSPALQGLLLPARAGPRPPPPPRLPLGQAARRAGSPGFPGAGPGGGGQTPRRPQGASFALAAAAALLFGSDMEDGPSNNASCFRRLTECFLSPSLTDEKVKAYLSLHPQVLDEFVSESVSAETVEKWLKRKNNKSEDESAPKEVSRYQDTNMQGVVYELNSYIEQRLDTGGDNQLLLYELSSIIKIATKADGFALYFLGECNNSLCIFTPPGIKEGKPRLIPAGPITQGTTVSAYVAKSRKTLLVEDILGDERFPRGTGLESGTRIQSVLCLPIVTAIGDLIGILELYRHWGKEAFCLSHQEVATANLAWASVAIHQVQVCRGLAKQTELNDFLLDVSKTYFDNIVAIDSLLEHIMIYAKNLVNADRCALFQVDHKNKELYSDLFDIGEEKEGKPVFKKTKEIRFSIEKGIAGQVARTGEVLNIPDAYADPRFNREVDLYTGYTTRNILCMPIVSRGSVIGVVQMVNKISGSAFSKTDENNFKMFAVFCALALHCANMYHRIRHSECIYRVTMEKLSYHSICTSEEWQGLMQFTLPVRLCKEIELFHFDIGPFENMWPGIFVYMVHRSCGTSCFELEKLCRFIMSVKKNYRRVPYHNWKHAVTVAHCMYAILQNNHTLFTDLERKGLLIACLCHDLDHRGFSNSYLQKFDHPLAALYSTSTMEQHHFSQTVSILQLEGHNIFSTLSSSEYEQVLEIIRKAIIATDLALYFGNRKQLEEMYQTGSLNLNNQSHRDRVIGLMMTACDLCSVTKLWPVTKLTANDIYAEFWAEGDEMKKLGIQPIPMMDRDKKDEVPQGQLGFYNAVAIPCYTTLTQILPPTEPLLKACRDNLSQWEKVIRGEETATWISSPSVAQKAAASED

Row | Structure (SMILES) | IC50 [nM]
1 | COc1cccn2cc(C3CC3c3nc4c(C)ncc(C)n4n3)nc12 (racemic) [Compound 59, (±)-2-(2-(8-methoxyimidazo[1,2-a]pyridin-2-yl)cyclopropyl)-5,8-dimethyl-[1,2,4]triazolo[1,5-a]pyrazine] | 100 to 500
2 | Cc1ncc(C)n2nc(C3CC3c3nc4cc(F)ccn4c3C)nc12 (stereo not drawn) [Compound 4] | > 500
3 | Cc1ncc(C)n2cc(C3CC3c3nc4c(C)ncc(C)n4n3)nc12 (racemic) [Compound 45, (±)-2-(2-(5,8-dimethylimidazo[1,2-a]pyrazin-2-yl)cyclopropyl)-5,8-dimethyl-[1,2,4]triazolo[1,5-a]pyrazine] | > 500
4 | Fc1ccn2cc(C3CCC3c3cn4cccc(Cl)c4n3)nc2c1 (stereo not drawn) [Compound 24, 8-Chloro-2-(2-(7-fluoroimidazo[1,2-a]pyridin-2-yl)cyclobutyl)imidazo[1,2-a]pyridine] | > 500
5 | COc1ccn2c(C)c(C3CCC3c3nc4c(C)ncc(C)n4n3)nc2c1 (racemic) [Compound 43, (±)-2-(2-(7-methoxy-3-methylimidazo[1,2-a]pyridin-2-yl)cyclobutyl)-5,8-dimethyl-[1,2,4]triazolo[1,5-a]pyrazine] | > 500
6 | Clc1cccn2cc(C3CC3c3cn4cccc(Cl)c4n3)nc12 (stereo not drawn) [Compound 11] | > 500
7 | Cc1ncc(C)n2nc(C3CC3c3nc4c(OC(F)F)cccn4c3C)nc12 (racemic) [Compound 31, (±)-2-(2-(8-(difluoromethoxy)-3-methylimidazo[1,2-a]pyridin-2-yl)cyclopropyl)-5,8-dimethyl-[1,2,4]triazolo[1,5-a]pyrazine] | 100 to 500
8 | COc1cccc2[nH]c(C3CC3c3nc4c(C)ncc(C)n4n3)nc12 (racemic) [Compound 47, (±)-2-(2-(4-methoxy-1H-benzo[d]imidazol-2-yl)cyclopropyl)-5,8-dimethyl-[1,2,4]triazolo[1,5-a]pyrazine] | 100 to 500
9 | Cc1ncc(C)n2nc(C3CCC3c3nc4c5cccnc5ccc4n3C)nc12 (racemic) [Compound 40, (±)-2-(2-(5,8-dimethyl-[1,2,4]triazolo[1,5-a]pyrazin-2-yl)cyclobutyl)-3-methyl-3H-imidazo[4,5-f]quinoline] | > 500
10 | Cc1cc2nc(C3CC3c3nc4c(C)ncc(C)n4n3)c(C)n2cc1F (racemic) [Compound 33, (±)-2-(2-(6-fluoro-3,7-dimethylimidazo[1,2-a]pyridin-2-yl)cyclopropyl)-5,8-dimethyl-[1,2,4]triazolo[1,5-a]pyrazine] | 100 to 500
11 | Clc1cccn2cc(C3CCC3c3cn4cccc(Cl)c4n3)nc12 (stereo not drawn) [Compound 23, 1,2-Bis(8-chloroimidazo[1,2-a]pyridin-2-yl)cyclobutane] | 100 to 500
12 | Cn1c([C@@H]2C[C@H]2c2ccc3ccccc3n2)nc2c3cccnc3ccc21 (single isomer, unassigned) [Compound 22] | 100 to 500
13 | Cc1ccn2cc(C3CC3c3nc4c(C)ncc(C)n4n3)nc2c1 (stereo not drawn) [Compound 12, 5,8-Dimethyl-2-(2-(7-methylimidazo[1,2-a]pyridin-2-yl)cyclopropyl)-[1,2,4]triazolo[1,5-a]pyrazine] | > 500
14 | COc1ccn2c(C)c(C3CC3c3nc4c(C)ncc(C)n4n3)nc2c1 (stereo not drawn) [Compound 13] | 100 to 500
15 | Fc1cccn2cc(C3CC3c3cn4cccc(F)c4n3)nc12 (stereo not drawn) [Compound 10] | > 500
16 | Cc1ccn2c(C)c(C3CC3c3nc4c(C)ncc(C)n4n3)nc2c1 (stereo not drawn) [Compound 6, 2-(2-(3,7-Dimethylimidazo[1,2-a]pyridin-2-yl)cyclopropyl)-5,8-dimethyl-[1,2,4]triazolo[1,5-a]pyrazine] | 100 to 500
17 | COc1cccc2c1nc(C1CC1c1nc3c(C)ncc(C)n3n1)n2C (racemic) [Compound 46, (±)-2-(2-(4-methoxy-1-methyl-1H-benzo [d]imidazol-2-yl)cyclopropyl)-5,8-dimethyl-[1,2,4]triazolo[1,5-a]pyrazine] | 100 to 500
18 | COc1cccn2c(C)c(C3CCC3c3nc4c(C)ncc(C)n4n3)nc12 (racemic) [Compound 42, (±)-2-(2-(8-methoxy-3-methylimidazo[1,2-a]pyridin-2-yl)cyclobutyl)-5,8-dimethyl-[1,2,4]triazolo[1,5-a]pyrazine] | > 500

Next, values leading:

Row | IC50 [nM] | Structure (SMILES)
19 | 10 to 100 | Cc1ncc(C)n2nc(C3CC3c3nc4c(C5CC5)cccn4c3C)nc12 (stereo not drawn) [Compound 5, 2-(2-(8-Cyclopropyl-3-methylimidazo[1,2-a]pyridin-2-yl)cyclopropyl)-5,8-dimethyl-[1,2,4]triazolo[1,5-a]pyrazine]
20 | 10 to 100 | COc1cc(C)cn2c(F)c(C3CC3c3nc4c(C)ncc(C)n4n3)nc12 (racemic) [Compound 44, (±)-2-(2-(3-fluoro-8-methoxy-6-methylimidazo[1,2-a]pyridin-2-yl)cyclopropyl)-5,8-dimethyl-[1,2,4]triazolo[1,5-a]pyrazine]
21 | ≤ 10 | Cc1ncc(C)n2nc([C@@H]3C[C@H]3c3nc4c5cccnc5ccc4n3C)nc12 [Compound 29]
22 | 10 to 100 | Cc1ncc(C)n2nc(C3CC3c3nc4c5cccc(F)c5ccn4c3C)nc12 (racemic) [Compound 30, (±)-2-(2-(5,8-dimethyl-[1,2,4]triazolo[1,5-a]pyrazin-2-yl)cyclopropyl)-7-fluoro-3-methylimidazo[2,1-a]isoquinoline]
23 | 10 to 100 | COc1cc(C)cn2c(C)c(C3CC3c3nc4c(C)ncc(C)n4n3)nc12 (racemic) [Compound 36, (±)-2-(2-(8-methoxy-3,6-dimethylimidazo[1,2-a]pyridin-2-yl)cyclopropyl)-5,8-dimethyl-[1,2,4]triazolo[1,5-a]pyrazine]
24 | 10 to 100 | CCOc1cccn2cc(C3CC3c3nc4c(C)ncc(C)n4n3)nc12 (stereo not drawn) [Compound 17]
25 | 10 to 100 | COc1cc(F)cn2c(C)c(C3CC3c3nc4c(C)ncc(C)n4n3)nc12 (racemic) [Compound 34, (±)-2-(2-(6-fluoro-8-methoxy-3-methylimidazo[1,2-a]pyridin-2-yl)cyclopropyl)-5,8-dimethyl-[1,2,4]triazolo[1,5-a]pyrazine]
26 | ≤ 10 | Cc1ncc(C)n2nc(C3CC3c3nc4c5ccccc5ccn4c3C)nc12 (stereo not drawn) [Compound 3]
27 | ≤ 10 | Cc1ncc(C)n2nc(C3CC3c3nc4c5cccnc5ccn4c3C)nc12 (stereo not drawn) [Compound 1, 2-(2-(5,8-Dimethyl-[1,2,4]triazolo[1,5-a]pyrazin-2-yl)cyclopropyl)-3-methylimidazo[2,1-f][1,6]naphthyridine]
28 | 10 to 100 | Cc1ncc(C)n2nc(C3CC3c3nc(-c4ccccc4)cn3C)nc12 (stereo not drawn) [Compound 19, 5,8-Dimethyl-2-(2-(1-methyl-4-phenyl-1H-imidazol-2-yl)cyclopropyl)-[1,2,4]triazolo[1,5-a]pyrazine]
29 | 10 to 100 | COc1cccn2c(C)c(C3CC3c3nc4c(C)ncc(C)n4n3)nc12 (stereo not drawn) [Compound 15]
30 | 10 to 100 | COc1cc(OC)c2nc(C3CC3c3nc4c(C)ncc(C)n4n3)c(C)n2c1 (racemic) [Compound 37, (±)-2-(2-(6,8-dimethoxy-3-methylimidazo[1,2-a]pyridin-2-yl)cyclopropyl)-5,8-dimethyl-[1,2,4]triazolo[1,5-a]pyrazine]
31 | 10 to 100 | COc1cccn2c(F)c(C3CC3c3nc4c(C)ncc(C)n4n3)nc12 (racemic) [Compound 55, (±)-2-(2-(3-fluoro-8-methoxyimidazo[1,2-a]pyridin-2-yl)cyclopropyl)-5,8-dimethyl-[1,2,4]triazolo[1,5-a]pyrazine]
32 | 10 to 100 | Cc1ncc(C)n2nc(C3CC3c3nc4c5c(ccn4c3C)OCCO5)nc12 (racemic) [Compound 35, (±)-9-(2-(5,8-dimethyl-[1,2,4]triazolo[1,5-a]pyrazin-2-yl)cyclopropyl)-8-methyl-2,3-dihydro-[1,4]dioxino[2,3-c]imidazo[1,2-a]pyridine]
33 | 10 to 100 | Cc1ncc(C)n2nc(C3CC3c3cn4ccc5c(c4n3)OCCO5)nc12 (racemic) [Compound 39, (±)-9-(2-(5,8-dimethyl-[1,2,4]triazolo[1,5-a]pyrazin-2-yl)cyclopropyl)-2,3-dihydro-[1,4]dioxino[2,3-c]imidazo[1,2-a]pyridine]
